Measured values taken from patent publication US9956187B2 (priority 2014, dated 2018).
Entries after “also recorded” stand apart in the source; their conditions may differ.

Key:
[1] = target: T1, norepinephrine transporter (NET) (Homo sapiens, UniProt P23975); test: Secondary radioligand binding assay (affinity); details: FIG. 10A
T1 construct: expressed in transfected cells
Description: The secondary binding assay was performed only when the inhibition in the primary screen was over 50%. A secondary binding assay was utilized to determine the binding affinity for the identified receptor.
50 μL of a crude membrane fraction of cells expressing the respective receptors were applied to each well. Reaction incubation, harvesting and radioactivity measurement from the primary assay were repeated. Affinity is expressed as pKi (−log Ki).

D5 = target: T2, D5 (Homo sapiens, UniProt P21918); test: Primary radioligand binding screen; details: primary binding, D5; dezocine 10 μM
T2 construct: expressed in transfected cells
Description: (§1) Evidence for interaction was based on the inhibition of the reference ligand-binding signal. […] Briefly, 50 μL aliquots of radioactive ligand (5 nM) were added to wells of a 96-well plate, which contained 25 μL of the reference or test ligands. We employed transfected cell lines expressing mainly human (unless otherwise specified) recombinant receptors, monoamine transporters, or ion channels for crude membrane preparation. Detailed information about our membrane preparation is well known in the art and can be obtained from publicly available protocol online. Crude membrane fractions containing the receptors were resuspended in standard binding buffer and 50 μL aliquots added to each well. The reactions were incubated at room temperature for 1.5 hours to allow for radioligand binding equilibration. Bound radioactivity was harvested by rapid filtration through a 0.3% polyethyleneimine-treated, 96-well filter mats using a 96-well Filtermate harvester. The dried filters were treated with melted scintillant and a Microbeta scintillation counter was utilized to measure the radioactivity retained on the filter.

Alpha2C = target: T3, Alpha2C (Homo sapiens, UniProt P18825); test: Primary radioligand binding screen; details: primary binding, Alpha2C; dezocine 10 μM
T3 construct: expressed in transfected cells
Description: as §1

5-hT5A = target: T4, 5-hT5A (Homo sapiens, UniProt P47898); test: Primary radioligand binding screen; details: primary binding, 5-hT5A; dezocine 10 μM
T4 construct: expressed in transfected cells
Description: as §1

5-HT2B = target: T5, 5-HT2B (Homo sapiens, UniProt P41595); test: Primary radioligand binding screen; details: primary binding, 5-HT2B; dezocine 10 μM
T5 construct: expressed in transfected cells
Description: as §1

Beta3 = target: T6, Beta3 (Homo sapiens, UniProt P13945); test: Primary radioligand binding screen; details: primary binding, Beta3; dezocine 10 μM
T6 construct: expressed in transfected cells
Description: as §1

D3 = target: T7, D3 (Homo sapiens, UniProt P35462); test: Primary radioligand binding screen; details: primary binding, D3; dezocine 10 μM
T7 construct: expressed in transfected cells
Description: as §1

Alpha2A = target: T8, Alpha2A (Homo sapiens, UniProt P08913); test: Primary radioligand binding screen; details: primary binding, Alpha2A; dezocine 10 μM
T8 construct: expressed in transfected cells
Description: as §1

5-HT1A = target: T9, 5-HT1A (Homo sapiens, UniProt P08908); test: Primary radioligand binding screen; details: primary binding, 5-HT1A; dezocine 10 μM
T9 construct: expressed in transfected cells
Description: as §1

D1 = target: T10, D1 (Homo sapiens, UniProt P21728); test: Primary radioligand binding screen; details: primary binding, D1; dezocine 10 μM
T10 construct: expressed in transfected cells
Description: as §1

M5 = target: T11, M5 (Homo sapiens, UniProt P08912); test: Primary radioligand binding screen; details: primary binding, M5; dezocine 10 μM
T11 construct: expressed in transfected cells
Description: as §1

Alpha1A = target: T12, Alpha1A (Homo sapiens, UniProt P35348); test: Primary radioligand binding screen; details: primary binding, Alpha1A; dezocine 10 μM
T12 construct: expressed in transfected cells
Description: as §1

5-HT1B = target: T13, 5-HT1B (Homo sapiens, UniProt P28222); test: Primary radioligand binding screen; details: primary binding, 5-HT1B; dezocine 10 μM
T13 construct: expressed in transfected cells
Description: as §1

H3 = target: T14, H3 (Homo sapiens, UniProt Q9Y5N1); test: Primary radioligand binding screen; details: primary binding, H3; dezocine 10 μM
T14 construct: expressed in transfected cells
Description: as §1

Alpha1B = target: T15, Alpha1B (Homo sapiens, UniProt P35368); test: Primary radioligand binding screen; details: primary binding, Alpha1B; dezocine 10 μM
T15 construct: expressed in transfected cells
Description: as §1

H2 = target: T16, H2 (Homo sapiens, UniProt P25021); test: Primary radioligand binding screen; details: primary binding, H2; dezocine 10 μM
T16 construct: expressed in transfected cells
Description: as §1

5-HT7 = target: T17, 5-HT7 (Homo sapiens, UniProt P34969); test: Primary radioligand binding screen; details: primary binding, 5-HT7; dezocine 10 μM
T17 construct: expressed in transfected cells
Description: as §1

5-HT3 = target: T18, 5-HT3 (Homo sapiens, UniProt P46098); test: Primary radioligand binding screen; details: primary binding, 5-HT3; dezocine 10 μM
T18 construct: expressed in transfected cells
Description: as §1

D2 = target: T19, D2 (Homo sapiens, UniProt P14416); test: Primary radioligand binding screen; details: primary binding, D2; dezocine 10 μM
T19 construct: expressed in transfected cells
Description: as §1

5-HT6 = target: T20, 5-HT6 (Homo sapiens, UniProt P50406); test: Primary radioligand binding screen; details: primary binding, 5-HT6; dezocine 10 μM
T20 construct: expressed in transfected cells
Description: as §1

5-HT1D = target: T21, 5-HT1D (Homo sapiens, UniProt P28221); test: Primary radioligand binding screen; details: primary binding, 5-HT1D; dezocine 10 μM
T21 construct: expressed in transfected cells
Description: as §1

Beta2 = target: T22, Beta2 (Homo sapiens, UniProt P07550); test: Primary radioligand binding screen; details: primary binding, Beta2; dezocine 10 μM
T22 construct: expressed in transfected cells
Description: as §1

5-HT2C = target: T23, 5-HT2C (Homo sapiens, UniProt P28335); test: Primary radioligand binding screen; details: primary binding, 5-HT2C; dezocine 10 μM
T23 construct: expressed in transfected cells
Description: as §1

D4 = target: T24, D4 (Homo sapiens, UniProt P21917); test: Primary radioligand binding screen; details: primary binding, D4; dezocine 10 μM
T24 construct: expressed in transfected cells
Description: as §1

NET = target: T25, NET (Homo sapiens, UniProt P23975); test: Primary radioligand binding screen; details: primary binding, NET; dezocine 10 μM
T25 construct: expressed in transfected cells
Description: as §1

5-HT1E = target: T26, 5-HT1E (Homo sapiens, UniProt P28566); test: Primary radioligand binding screen; details: primary binding, 5-HT1E; dezocine 10 μM
T26 construct: expressed in transfected cells
Description: as §1

Sigma 1 = Sigma 1 (Homo sapiens, UniProt Q99720); test: Primary radioligand binding screen; set-up: expressed in transfected cells; details: primary binding, Sigma 1; dezocine 10 μM
Description: as §1

human cloned SERT = target: T27, human cloned SERT (Homo sapiens, UniProt P31645); test: Serotonin reuptake assay in HEK 293 cells; assay type: cell-based; details: mean±SE
T27 construct: expressed in transfected cells
Description: In brief, Human Embryonic Kidney 293 cells were plated in Poly-L-Lys (PLL) coated 384-well black clear bottom cell culture plates in DMEM+1% dFBS, at a density of 15,000 cells per well in a total volume of 40 μl. The cells were incubated for a minimum of 6 hours before use in the assays. The medium was removed and 20 μL of assay buffer (20 mM HEPES, 1×HBSS, pH 7.40) was added, followed by 5 μL of 5× drug solutions. The plate was incubated at 37° C. for 30 min. After the incubation, 25 μL of dye solution was added and fluorescence intensity was measured after […] at 37° C., using FlexStation II (bottom read mode, Excitation at 440 nm, Emission at 520 nm with 510 nm cut-off) from the Molecular Devices. […] The half maximal inhibitory concentration were determined and expressed as pIC50 (pIC50=−log (IC50)).

kappa opioid receptor = kappa opioid receptor (Homo sapiens, UniProt P41145); assay type: biochemical; set-up: purchased Millipore (Billerica, Mass.); host or cells: Chem-5 mammalian cell line
kappa opioid receptor, sequence (P41145 whole entry): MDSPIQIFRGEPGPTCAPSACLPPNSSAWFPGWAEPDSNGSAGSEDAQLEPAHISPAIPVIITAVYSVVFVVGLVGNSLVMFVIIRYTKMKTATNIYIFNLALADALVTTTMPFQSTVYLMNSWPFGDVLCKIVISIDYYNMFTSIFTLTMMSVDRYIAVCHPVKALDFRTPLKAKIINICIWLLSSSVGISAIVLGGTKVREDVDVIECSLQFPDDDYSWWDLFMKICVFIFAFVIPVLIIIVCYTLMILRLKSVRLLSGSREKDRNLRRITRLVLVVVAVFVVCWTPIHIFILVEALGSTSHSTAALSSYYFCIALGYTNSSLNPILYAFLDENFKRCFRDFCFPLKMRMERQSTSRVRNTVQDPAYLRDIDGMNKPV
Description: Membrane preparations of recombinant human kappa opioid receptor expressed in the mammalian cell line Chem-5 were obtained from Millipore (Billerica, Mass.). The effects of specific kappa opioid receptor ligands on the activation of the recombinant receptor were investigated by measuring G protein activation in vitro.
The assay reports the initial rates of activation of heterotrimeric G proteins (Gαii1β1γ2) on an agonist-bound receptor by measuring the accumulation of [^35S]-GTPγS (non-hydrolyzable analog of GTP) bound to the activated Gαi1 subunit. […] The G protein activation assay was conducted as follows (final concentrations in 50 μL reaction mixture are given in parentheses): the membrane sample was diluted into ice-cold 10 mM 3-(N-morpholino)propanesulfonic acid (MOPS) buffer to reach a protein concentration of 40 ng/μL. 10 μL of the diluted dispersion were dispensed into pre-siliconized glass tubes and mixed with the ligand in MOPS buffer containing 0.1% (w/v) BSA. Upon addition of a mixture of Gαi1 (100 nM) and Gβ1γ2 (500 nM), the tubes were incubated on ice for 30 minutes. The reaction was started by addition of MOPS buffer pH=7.5 (50 mM), EDTA (1 mM), MgCl2 (3 mM), GDP (4 μM), BSA (0.3% w/v), NaCl (100 mM), DTT (1 mM), and [^35S]-GTPγS (5 nM, 1250 Ci/mmol) followed by rapid transfer of the tubes to a water bath at 30° C. The incubation continued for 45 minutes. The reaction was terminated by addition of 2 mL of ice-cold stop solution, TNMg (20 mM Tris-HCl pH=8.0, 100 mM NaCl, and 25 mM MgCl2). The reaction mixture was rapidly filtered through nitrocellulose filters (Millipore). Filters were washed four times with 2 mL each of cold TNMg buffer, dried, placed in scintillation vials filled with ScintiSafe Econo F scintillation liquid (Fisher, Waltham, Mass.), and the radioactivity counted. Duplicate samples corresponding to every ligand concentration point were counted.

T1 sequence (P23975 whole entry): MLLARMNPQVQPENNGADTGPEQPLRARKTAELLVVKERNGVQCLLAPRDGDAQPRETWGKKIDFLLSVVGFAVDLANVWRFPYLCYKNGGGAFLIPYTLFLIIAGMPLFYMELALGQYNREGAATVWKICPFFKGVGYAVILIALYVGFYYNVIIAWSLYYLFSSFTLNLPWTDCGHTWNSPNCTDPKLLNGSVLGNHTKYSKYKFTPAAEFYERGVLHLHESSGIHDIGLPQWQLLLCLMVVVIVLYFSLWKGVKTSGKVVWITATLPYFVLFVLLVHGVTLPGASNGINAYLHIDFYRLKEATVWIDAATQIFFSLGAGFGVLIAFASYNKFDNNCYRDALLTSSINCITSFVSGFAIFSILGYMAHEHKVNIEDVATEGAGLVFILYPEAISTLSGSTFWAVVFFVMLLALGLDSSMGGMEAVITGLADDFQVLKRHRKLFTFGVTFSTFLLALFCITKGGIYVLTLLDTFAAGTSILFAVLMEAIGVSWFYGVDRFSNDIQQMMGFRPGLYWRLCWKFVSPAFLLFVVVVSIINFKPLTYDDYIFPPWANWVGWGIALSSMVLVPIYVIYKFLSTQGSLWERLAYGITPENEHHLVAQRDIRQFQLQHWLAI
T13 sequence (P28222 whole entry): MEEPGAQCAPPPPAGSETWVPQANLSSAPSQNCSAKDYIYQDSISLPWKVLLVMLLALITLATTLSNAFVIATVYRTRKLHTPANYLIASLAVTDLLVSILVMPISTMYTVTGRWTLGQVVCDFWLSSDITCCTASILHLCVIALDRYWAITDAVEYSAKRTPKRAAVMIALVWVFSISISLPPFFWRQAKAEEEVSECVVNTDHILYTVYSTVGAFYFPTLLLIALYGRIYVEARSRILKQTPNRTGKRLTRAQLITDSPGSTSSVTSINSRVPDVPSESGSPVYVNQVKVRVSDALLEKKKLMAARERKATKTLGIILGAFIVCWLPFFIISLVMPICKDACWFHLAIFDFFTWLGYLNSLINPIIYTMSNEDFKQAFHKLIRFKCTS
T7 sequence (P35462 whole entry): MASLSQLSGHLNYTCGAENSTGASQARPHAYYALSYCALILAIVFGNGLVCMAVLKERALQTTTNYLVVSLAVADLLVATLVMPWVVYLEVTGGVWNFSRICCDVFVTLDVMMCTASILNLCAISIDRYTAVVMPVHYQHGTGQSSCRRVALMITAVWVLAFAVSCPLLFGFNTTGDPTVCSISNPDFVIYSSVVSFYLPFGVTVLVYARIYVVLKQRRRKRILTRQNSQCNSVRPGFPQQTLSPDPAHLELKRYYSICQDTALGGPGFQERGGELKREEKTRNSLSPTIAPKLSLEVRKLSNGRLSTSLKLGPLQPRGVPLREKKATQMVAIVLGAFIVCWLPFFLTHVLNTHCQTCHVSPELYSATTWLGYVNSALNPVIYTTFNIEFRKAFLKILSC
T19 sequence (P14416 whole entry): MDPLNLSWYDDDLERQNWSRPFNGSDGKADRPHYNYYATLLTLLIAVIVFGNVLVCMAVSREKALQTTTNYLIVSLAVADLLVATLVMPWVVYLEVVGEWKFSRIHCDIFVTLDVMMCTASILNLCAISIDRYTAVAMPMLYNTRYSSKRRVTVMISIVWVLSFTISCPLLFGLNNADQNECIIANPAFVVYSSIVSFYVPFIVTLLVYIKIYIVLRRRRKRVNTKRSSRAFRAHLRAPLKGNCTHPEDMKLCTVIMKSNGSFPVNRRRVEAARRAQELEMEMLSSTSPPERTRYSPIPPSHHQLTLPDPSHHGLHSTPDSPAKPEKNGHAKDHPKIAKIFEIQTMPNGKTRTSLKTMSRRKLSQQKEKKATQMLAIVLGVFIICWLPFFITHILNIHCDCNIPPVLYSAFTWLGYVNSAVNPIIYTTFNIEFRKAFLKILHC
T25 sequence (P23975 whole entry): as the sequence (P23975 whole entry) above
T10 sequence (P21728 whole entry): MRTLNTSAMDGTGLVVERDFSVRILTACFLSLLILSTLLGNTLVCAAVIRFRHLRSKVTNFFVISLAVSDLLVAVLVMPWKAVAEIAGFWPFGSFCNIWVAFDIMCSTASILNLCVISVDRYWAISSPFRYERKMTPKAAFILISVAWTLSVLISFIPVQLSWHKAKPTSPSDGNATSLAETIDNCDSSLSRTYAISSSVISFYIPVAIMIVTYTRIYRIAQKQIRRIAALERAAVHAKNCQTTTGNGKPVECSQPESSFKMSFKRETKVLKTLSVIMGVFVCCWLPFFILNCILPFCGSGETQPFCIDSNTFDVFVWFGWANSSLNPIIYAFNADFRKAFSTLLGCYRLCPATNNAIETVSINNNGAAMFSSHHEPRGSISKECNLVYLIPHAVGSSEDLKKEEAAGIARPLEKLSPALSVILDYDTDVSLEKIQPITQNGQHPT
T14 sequence (Q9Y5N1 whole entry): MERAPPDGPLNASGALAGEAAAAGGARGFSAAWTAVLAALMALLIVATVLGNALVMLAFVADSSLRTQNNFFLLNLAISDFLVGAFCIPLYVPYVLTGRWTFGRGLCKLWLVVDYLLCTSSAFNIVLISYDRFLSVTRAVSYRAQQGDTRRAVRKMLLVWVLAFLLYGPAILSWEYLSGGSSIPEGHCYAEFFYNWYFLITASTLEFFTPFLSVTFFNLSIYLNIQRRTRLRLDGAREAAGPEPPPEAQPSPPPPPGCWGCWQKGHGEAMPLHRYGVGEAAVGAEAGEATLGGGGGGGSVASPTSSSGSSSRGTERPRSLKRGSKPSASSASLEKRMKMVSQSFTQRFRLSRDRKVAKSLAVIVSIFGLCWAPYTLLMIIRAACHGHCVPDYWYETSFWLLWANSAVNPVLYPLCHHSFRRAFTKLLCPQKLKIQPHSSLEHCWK
T6 sequence (P13945 whole entry): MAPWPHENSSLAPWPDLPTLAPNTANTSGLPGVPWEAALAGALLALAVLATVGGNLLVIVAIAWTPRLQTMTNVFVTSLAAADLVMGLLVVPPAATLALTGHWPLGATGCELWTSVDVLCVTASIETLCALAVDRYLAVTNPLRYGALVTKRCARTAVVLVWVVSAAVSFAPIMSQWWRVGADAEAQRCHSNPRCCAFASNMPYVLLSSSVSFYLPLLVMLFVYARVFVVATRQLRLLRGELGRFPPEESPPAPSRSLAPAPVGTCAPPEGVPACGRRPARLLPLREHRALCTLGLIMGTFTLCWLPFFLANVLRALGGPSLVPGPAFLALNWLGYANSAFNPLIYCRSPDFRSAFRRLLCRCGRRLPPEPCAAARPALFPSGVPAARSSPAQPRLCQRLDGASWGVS
T12 sequence (P35348 whole entry): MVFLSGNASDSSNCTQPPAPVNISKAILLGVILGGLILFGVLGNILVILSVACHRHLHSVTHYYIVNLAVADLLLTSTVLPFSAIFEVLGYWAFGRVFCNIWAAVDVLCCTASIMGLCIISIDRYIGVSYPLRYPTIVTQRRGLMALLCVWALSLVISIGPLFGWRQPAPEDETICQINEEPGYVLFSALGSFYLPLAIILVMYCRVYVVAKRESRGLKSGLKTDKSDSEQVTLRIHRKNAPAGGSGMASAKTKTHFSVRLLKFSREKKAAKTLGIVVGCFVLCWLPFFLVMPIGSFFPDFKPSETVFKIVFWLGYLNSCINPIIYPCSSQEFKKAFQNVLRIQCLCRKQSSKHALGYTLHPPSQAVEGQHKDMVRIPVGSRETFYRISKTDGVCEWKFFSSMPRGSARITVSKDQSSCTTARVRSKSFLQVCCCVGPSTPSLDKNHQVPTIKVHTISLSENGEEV
T26 sequence (P28566 whole entry): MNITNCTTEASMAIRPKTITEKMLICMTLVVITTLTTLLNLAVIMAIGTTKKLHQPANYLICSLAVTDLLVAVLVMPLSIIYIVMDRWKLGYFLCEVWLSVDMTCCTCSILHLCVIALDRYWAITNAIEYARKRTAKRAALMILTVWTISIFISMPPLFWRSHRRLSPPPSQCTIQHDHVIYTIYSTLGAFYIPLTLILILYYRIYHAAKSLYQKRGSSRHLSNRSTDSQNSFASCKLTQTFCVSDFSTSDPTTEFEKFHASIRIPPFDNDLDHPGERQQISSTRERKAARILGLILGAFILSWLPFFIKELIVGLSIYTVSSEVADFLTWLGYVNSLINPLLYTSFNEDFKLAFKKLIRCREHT
T18 sequence (P46098 24-478): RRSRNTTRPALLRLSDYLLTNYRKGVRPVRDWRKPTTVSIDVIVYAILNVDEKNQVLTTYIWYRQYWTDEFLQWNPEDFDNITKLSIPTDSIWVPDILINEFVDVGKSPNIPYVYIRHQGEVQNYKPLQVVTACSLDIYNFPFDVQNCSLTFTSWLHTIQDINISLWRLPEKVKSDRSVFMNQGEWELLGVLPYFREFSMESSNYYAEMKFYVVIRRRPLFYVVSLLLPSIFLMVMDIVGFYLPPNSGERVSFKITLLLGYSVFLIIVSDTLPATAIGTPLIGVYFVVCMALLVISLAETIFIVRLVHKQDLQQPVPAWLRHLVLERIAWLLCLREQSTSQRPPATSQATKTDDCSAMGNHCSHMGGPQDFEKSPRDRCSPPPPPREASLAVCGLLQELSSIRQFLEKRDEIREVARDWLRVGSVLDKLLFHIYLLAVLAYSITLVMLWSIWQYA

Structure (SMILES): CN1CC[C@]23c4c5ccc(O)c4O[C@H]2[C@@H](O)C=C[C@H]3[C@H]1C5 [Morphine]
- interaction (binding activity) with NET [1]: No significant binding activity

Structure (SMILES): C=CCN1CC[C@]23c4c5ccc(O)c4O[C@H]2C(=O)CC[C@@]3(O)[C@H]1C5 [Naloxone]
- interaction (binding activity) with NET [1]: No significant binding activity
- % inhibition (D5): 2.1%
- % inhibition (Alpha2C): 22.7%
- % inhibition (5-hT5A): 28.9%
- % inhibition (5-HT2B): 49.6%
- % inhibition (Beta3): −3.1%
- % inhibition (D3): 1.9%
- % inhibition (Alpha2A): 12.9%
- % inhibition (5-HT1A): 5.8%
- % inhibition (D1): 5.5%
- % inhibition (M5): 32.1%
- % inhibition (Alpha1A): 4%
- % inhibition (5-HT1B): −1%
- % inhibition (H3): 8.9%
- % inhibition (Alpha1B): −2%
- % inhibition (H2): 57.4%
- % inhibition (5-HT7): 60.3%
- % inhibition (5-HT3): 0%
- % inhibition (D2): −0.8%
- % inhibition (5-HT6): 27.6%
- % inhibition (5-HT1D): −1.6%
- % inhibition (Beta2): −2.6%
- % inhibition (5-HT2C): 21.1%
- % inhibition (D4): −5.8%
- % inhibition (NET): 43.8%
- % inhibition (5-HT1E): −5.7%
- % inhibition (Sigma 1): 9.6%

Structure (SMILES): CNCCC(Oc1ccccc1OC)c1ccccc1 (stereo not drawn) [nisoxetine]
- pIC50 of SERT (serotonin reuptake) (human cloned SERT): 5.99±0.07

Structure (SMILES): Oc1ccc2c3c1O[C@H]1c4[nH]c5c(c4C[C@@]4(O)[C@@H](C2)N(CC2CC2)CC[C@]314)C[C@@]1(O)[C@H]2Cc3ccc(O)c4c3[C@@]1(CCN2CC1CC1)[C@H]5O4 [nor-binaltorphimine]
- G protein activation in the presence of kappa receptor (kappa opioid receptor): inverse kappa agonist; also recorded: did not induce G protein activation
